The numbers were not newly measured in PMC8778818, “Synthesis, Structural Characterization and Anticancer Activity of New 5-Trifluoromethyl-2-thioxo-thiazolo[4,5-d]pyrimidine Derivatives” (Pharmaceuticals, 2022), which cites them from elsewhere.

In one data set the test system is CAKI-1. Further details: method as in PMID 579132. The following applies: Renal C. CAKI-1, 10^−5 M one dose; cited from earlier work.
The subject of data set [1] is 60 human cancer cell lines. Further details: method as in PMID 579132. To be noted: analogs IV and V, cited from earlier work.

Consider `Fc1ccc(-c2nc(Cl)c3sc(=S)n(-c4ccccc4)c3n2)cc1` [V], for which the “Growth % of the most sensitive cell line” value in the data set on CAKI-1 is listed as −88.95%. For the same compound, in data set [1] (of N = 59 tested cell lines), the “N2: number of cell lines giving positive log TGI (≤−4.01)” value is recorded as 49. Besides, in data set [1] (values > −4.00 excluded), the “log GI50 Range” value is given as −4.23 to −8.00 log M, the “log LC50 Range” value is reported as −4.07 to −5.42 log M and the “log TGI Range” value was −4.10 to −5.90 log M.
